Several values for one entry are separate records, joined by “and”; a condition that tells them apart may be missing. Equal values may be shown once. Non-standard residues stand in square brackets, D forms with d. Residues, ends and D or L forms follow the SMILES beside them.
Legend:
[1] = biological target: T1, Aβ(1–42) oligomers (Homo sapiens, UniProt P05067); assay: QIAD assay (Aβ oligomer elimination); type: biochemical; details: 10 μM DB3DB3, 80 μM Aβ(1–42) preincubated 4.5 h, 40 min with peptide, density gradient centrifugation, RP-HPLC, triplicate
T1 construct: Aβ(1–42), N-terminally biotinylated Aβ(1–42) and FITC-Aβ(1–42) were purchased from Bachem; purchased Bachem (Heidelberg, Germany)
T1 sequence (P05067 672-713 limits assumed): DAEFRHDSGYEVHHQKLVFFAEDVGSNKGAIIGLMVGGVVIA
Procedure: The quantitative determination of interference with Aβ(1–42) aggregate size distribution (QIAD) was performed as described before. In brief, 80 μM Aβ(1–42) was incubated in 10 mM sodium phosphate buffer, pH 7.4 for 4.5 h at 22°C with 600 rpm agitation. Aβ(1–42) aggregation was continued for an additional 40 min with or without DB peptide. The obtained partial size distribution was analyzed by applying density gradient centrifugation. 100 μl of the incubated sample was placed on top of a gradient with 5 to 50% iodixanol (Optiprep, Axis-shield, Oslo, Norway) and separated at 259.000 x g for 3 h at 4°C using an ultracentrifuge (Optima MAX-XP, Beckman Coulter, Brea, USA). Fourteen fractions of 140 μl were taken from top to bottom. […] For quantification of the Aβ(1–42) amount in each fraction, reversed-phase high performance liquid chromatography (RP-HPLC) was performed using a Zorbax SB-300 C8 column (Agilent, Böblingen, Germany) connected to an Agilent 1260 Infinity system using 30% (v/v) acetonitrile with 0.1% (v/v) trifluoroacetic acid (TFA) as the mobile phase with a flow of 1 ml/min and a column temperature of 80°C. […] The UV absorption at 214 nm was measured. For quantification of the Aβ(1–42) amount, the area under the peak representing Aβ(1–42) was calculated and the molar concentration was determined using a calibration curve. […]

[2] = biological target: T2, Aβ(1–42) (Homo sapiens, UniProt P05067); assay: Aβ aggregation inhibition ELISA; type: biochemical; details: 400 nM Aβ(1–42), 500 mM Tris pH 7.4, 23 h, 37°C, aggregate-specific ELISA, logistic fit, three independent experiments; read-out: EC50 of inhibition of Aβ aggregate formation
T2 construct: Aβ(1–42), N-terminally biotinylated Aβ(1–42) and FITC-Aβ(1–42) were purchased from Bachem; purchased Bachem (Heidelberg, Germany)
T2 sequence (P05067 672-713 limits assumed): as above
Procedure: Freshly dissolved monomeric Aβ(1–42) (400 nM in 500 mM Tris-buffer pH 7.4) was incubated with and without DB peptides in different concentrations (0.01, 0.05, 0.1, 0.5, 1, 5, 10, 50 and 100 μM for DB3 or half of the molar concentrations in case of DB3DB3) in a humidity chamber for 23 h at 37°C. The aggregation was analyzed by an enzyme-linked immunosorbent assay (ELISA). NP27 antibody in bicarbonate/carbonate buffer was used to coat the ELISA plate overnight. Then the plate was washed in PBS-Tween buffer (1x PBS + 0.05% Tween) and blocked for 2 h at room temperature with 5% casein buffer. After washing, Aβ aggregate solutions were added to the plate and incubated for 1 h at room temperature. The plate was washed again and bound Aβ aggregates were detected by biotinylated 6E10/HRP-avidin mediated immunoreaction (BioLegend, San Diego, CA USA) using TMB as detection reagent. […] Mean value and standard error were calculated from three independent experiments. EC50 was calculated by fitting the data to a logistic dose response function.
Fig 5 Inhibition of Aβ fibril formation and Aβ aggregation disassemble by DB3 and DB3DB3. A) Monomeric Aβ(1–42) (400 nM) was mixed with different concentrations of DB3 (0.01, 0.05, 0.1, 0.5, 1, 5, 10, 50, 100 μM) and the aggregation state of Aβ was analyzed using an Aβ aggregate specific ELISA. […] All data were determined in triplicate. […]

[3] = test system: PC12 cells; assay: MTT cell viability assay; type: cell-based, rat; details: 5 μM peptide without Aβ, 24 h
Procedure: Rat pheochromocytoma PC12 cells (Leibniz Institute DSMZ, Braunschweig, Germany) were cultivated in DMEM medium supplemented with 10% fetal bovine serum and 5% horse serum. 10,000 cells per well were seeded on collagen-coated 96 well plates (Gibco, Life technology, Carlsberg, USA) and incubated in a 95% humidified atmosphere with 5% CO2 at 37°C for 24 h. […] DB peptide was then added at different concentrations and incubated for further 40 min at 21°C and 600 rpm agitation before addition to the PC12 cells. […] Cell viability was then measured using the Cell proliferation Kit I (MTT) (Roche, Basel, Switzerland) according to the manufacturer’s instruction. The absorbance of the formazan product was determined by measuring at 570 nm after subtracting the absorption at 660 nm. For absorption measurements, a Polarstar Optima plate reader (BMG, Offenburg, Germany) was used. All results were normalized to cells that were treated with buffer only.
The cell viability assay was performed using PC12 cells in a MTT test. […] The absorption of buffer treated cells was set to 100% cell viability. […] The Mann-Whitney-U-test was used for statistical analysis. * p < 0.05; ** p < 0.01; *** p < 0.001.

[4] = biological target: T3, preformed Aβ(1–42) aggregates (Homo sapiens, UniProt P05067); assay: Aβ aggregate disassembly ELISA; type: biochemical
T3 construct: Aβ(1–42), N-terminally biotinylated Aβ(1–42) and FITC-Aβ(1–42) were purchased from Bachem; purchased Bachem (Heidelberg, Germany)
T3 sequence (P05067 672-713 limits assumed): as above
Procedure: Freshly dissolved monomeric Aβ(1–42) (400 nM in 500 mM Tris-buffer pH 7.4) was incubated in a humidity chamber for 22 h at 37°C in order to preform Aβ(1–42) aggregates. These preformed aggregates were coincubated with D-peptide in different concentrations (0.01, 0.05, 0.1, 0.5, 1, 5, 10, 50, 100 μM for DB3 or with half of the molar concentrations in case of DB3DB3) for additional 22 h at 37°C. The content of Aβ aggregates was measured and evaluated in the same way as the aggregation inhibition ELISA.
Fig 5 Inhibition of Aβ fibril formation and Aβ aggregation disassemble by DB3 and DB3DB3. A) Monomeric Aβ(1–42) (400 nM) was mixed with different concentrations of DB3 (0.01, 0.05, 0.1, 0.5, 1, 5, 10, 50, 100 μM) and the aggregation state of Aβ was analyzed using an Aβ aggregate specific ELISA. For DB3DB3 half of the molar concentrations compared to DB3 were used. Aβ without DB3 and DB3DB3 addition was taken as control. For DB3 an EC50 of 6 μM was calculated using a logistic fit model. DB3DB3 inhibited the formation of Aβ fibrils more efficiently with an EC50 of 7 nM. B) The disassembly properties of DB3 and DB3DB3 were measured using an Aβ aggregation specific ELISA. Monomeric Aβ(1–42) (400 nM) was preincubated in order to form fibrils and mixed with nine different concentrations of DB3 (0.01, 0.05, 0.1, 0.5, 1, 5, 10, 50, 100 μM). For DB3DB3, the molar concentrations were half those used for DB3. […] DB3DB3 disassembled Aβ aggregates at the lowest concentration […]. Thus, the EC50 could not be determined, but is < 10 nM. All data were determined in triplicate. The Mann-Whitney-U-test was performed for statistical analysis. * p< 0.05; ** p < 0.01; *** p < 0.001
The Aβ aggregate disassembly ELISA was used to analyze the effect of DB3 and DB3DB3 on preformed Aβ aggregates (Fig 5B). […] The Aβ aggregates specific ELISA was used to quantify Aβ aggregates. […] The results of measured Aβ aggregates normalized to the Aβ control were plotted against the peptide concentration. The EC50 was calculated by a logarithmic dose response function.

[5] = biological target: T2, Aβ(1–42); assay: Thioflavin T (ThT) fibril formation assay; type: biochemical; details: 20 μM Aβ(1–42), 20 μM peptide (method: 31 μg/ml), 20 μM ThT, 10 mM sodium phosphate pH 7.4, 37°C, compared after 5 h with Aβ(1–42)-only control
Procedure: 20 μM Aβ(1–42) was mixed with 20 μM Thioflavin T (ThT) and 31 μg/ml DB3 or DB3DB3 in 10 mM sodium phosphate buffer, pH 7.4. The assay was performed using a non-binding 96 well plate (Greiner Bio-One, Frickenhausen, Germany). ThT fluorescence was measured every 15 min at λex = 440 nm and λem = 490 nm in a temperature-controlled plate reader (Polarstar Optima, BMG, Offenburg, Germany) at 37°C with 1 min agitation before every measurement. Each value was background corrected using the ThT fluorescence of a peptide solution without Aβ(1–42). To investigate the influence of DB1 to DB5 on Aβ fibril formation, a Thioflavin T (ThT) assay was performed. In an aqueous environment the benzothiazole dye has a low fluorescence. […] The emission at 490 nm is directly proportional to the quantity of amyloid fibrils. Fibril formation of Aβ can be followed in real time by measuring the ThT fluorescence. Therefore, the inhibitory effects of the D-peptides DB1 to DB5 and D3 were investigated by co-incubating these peptides with Aβ(1–42) and performing the ThT assay. Fluorescence emission data were compared after 5 h incubation, because after this period the Aβ(1–42) control (without added peptide) reached its fluorescence maximum. […] 20 μM Aβ(1–42) was mixed with 20 μM DB1 to DB5 or 10 μM DB3DB3 and the ThT fluorescence was monitored. Aβ(1–42) without peptide addition was taken as the control. The ThT fluorescence of all samples were compared after 5 h, where the control, Aβ(1–42) only, reached its maximum in fluorescence emission. The Mann-Whitney-U-test was used for statistical analysis. * p < 0.05; ** p < 0.01; *** p < 0.001.

[6] = test system: transgenic mice; details: ref [10], [15], [16], cited from earlier work
Source text: We have previously selected the 12mer all-D-enantiomeric peptide D3 via mirror image phage display. In vitro, D3 binds to amyloid plaques, reduces Aβ aggregation to regular fibrils, eliminates Aβ oligomers and converts preformed fibrils into non-amyloidogenic, non-fibrillar, non-toxic aggregates. In vivo, the plaque load and cerebral inflammation of transgenic mice is reduced after injection of D3 into the brain and cognitive impairment of transgenic mice is improved after oral application. The original phage library, from which D3 was selected, coded ...

CC[C@@H](C)[C@@H](NC(=O)[C@H]1CCCN1C(=O)[C@H](N)CCCNC(=N)N)C(=O)N[C@@H](C(=O)N[C@H](CCCNC(=N)N)C(=O)N[C@H](CC(C)C)C(=O)N[C@H](CCCNC(=N)N)C(=O)N[C@@H](C(=O)N[C@H](Cc1c[nH]cn1)C(=O)N[C@H](CCC(N)=O)C(=O)N[C@H](CC(N)=O)C(=O)N[C@H](CCCNC(=N)N)C(=O)N[C@H](CCCNC(=N)N)C(=O)N1CCC[C@@H]1C(=O)N[C@@H](C(=O)N[C@@H](C(=O)N[C@H](CCCNC(=N)N)C(=O)N[C@H](CC(C)C)C(=O)N[C@H](CCCNC(=N)N)C(=O)N[C@@H](C(=O)N[C@H](Cc1c[nH]cn1)C(=O)N[C@H](CCC(N)=O)C(=O)N[C@H](CC(N)=O)C(=O)N[C@H](CCCNC(=N)N)C(N)=O)[C@H](C)O)[C@H](C)O)[C@H](C)CC)[C@H](C)O)[C@H](C)O [DB3DB3] (H-[dR][dP][dI][dT][dR][dL][dR][dT][dH][dQ][dN][dR][dR][dP][dI][dT][dR][dL][dR][dT][dH][dQ][dN][dR]-NH2)
reduction of the content of Aβ oligomers [1]: 82% | EC50 [2]: 8 nM and 7 nM | effect of peptide alone on PC12 cell viability [3]: not toxic | disassembly of the Aβ aggregates ([4]; 10 nM DB3DB3 added to 400 nM Aβ, compared to Aβ in the absence of peptide): 80% | EC50 ([4]; 400 nM Aβ(1–42) preincubated 22 h at 37°C, then with peptide 22 h (24 h) at 37°C, ELISA, triplicate): < 10 nM

RPITRLHTDRNR [DB1, all-D D3 derivative, C-terminally amidated]
inhibition of Aβ(1–42) fibril formation (ThT fluorescence) [5]: 63%

RPITRLQTHEQR [DB5, all-D D3 derivative, C-terminally amidated]
inhibition of Aβ(1–42) fibril formation (ThT fluorescence) [5]: 76%

RPITTLQTHQNR [DB2, all-D D3 derivative, C-terminally amidated]
inhibition of Aβ(1–42) fibril formation (ThT fluorescence) [5]: 49%

RPRTRLHTHRNR [D3, 12mer all-D-enantiomeric peptide selected via mirror image phage display, C-terminally amidated]
inhibition of Aβ(1–42) fibril formation (ThT fluorescence) [5]: 30% | plaque load and cerebral inflammation of transgenic mice ([6]; injection of D3 into the brain): reduced | cognitive impairment of transgenic mice ([6]; oral application): improved

RPRTRLRTHQNR [DB4, all-D D3 derivative, C-terminally amidated]
inhibition of Aβ(1–42) fibril formation (ThT fluorescence) [5]: no effect
